Assay results: US12180207B2 (ARRAY BIOPHARMA INC., priority 2018, dated 2024)

Key:
[1] = molecular target: FGFR3 (SEQ ID NO: 5, amino acids 449-759) (Homo sapiens (Human), UniProt P22607); test: LC/MS FGFR3 kobs assay (covalent protein modification); assay type: binding; details: 500 nM FGFR3, 3 μM compound
In short: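 The observed rate constant kobs comes from an exponential decay fit of percent unmodified kinase over time. Covalent modification was quantified by Q-TOF LC/MS of formic acid-quenched samples, normalized against DMSO controls.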

[2] = molecular target: recombinant human FGFR1 catalytic domain (amino acids 308-731) (Homo sapiens (Human), UniProt P11362); test: FGFR1 enzyme activity assay (LanthaScreen TR-FRET); assay type: biochemical; details: 20 min incubation at 22° C., average of multiple determinations if made, read-out: FGFR1 Enz FRET IC50
In short: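 His-tagged FGFR1 kinase domain with 100 nM Alexa Fluor 647-poly-GT peptide and ATP in pH 7.5 HEPES/MgCl2 buffer with 2% DMSO, 20 min at 22 °C. Quenched with EDTA plus 2 nM Eu-PY20 antibody and read after 60 min. IC50 comes from a 4-parameter fit of percent of control.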

[3] = molecular target: recombinant human FGFR3 (amino acids R397-T806) (Homo sapiens (Human), UniProt P22607); test: FGFR3 enzyme activity assay (LanthaScreen TR-FRET); assay type: biochemical; details: 25 μM ATP, 10 min incubation at 22° C., average of multiple determinations if made, read-out: FGFR3 Enz FRET IC50
In short: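 GST-HIS6-tagged human FGFR3 (R397-T806) was reacted with 100 nM Alexa Fluor 647-Poly-GT substrate and 25 μM ATP plus compound in HEPES/MgCl2/Triton buffer, pH 7.5, 2% DMSO, for 10 min at 22 °C.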

[4] = molecular target: recombinant human FGFR2 cytoplasmic domain (amino acids 403-822) (Homo sapiens (Human), UniProt P21802); test: FGFR2 enzyme activity assay (LanthaScreen TR-FRET); assay type: biochemical; details: 15 μM ATP, 20 min incubation at 22° C., average of multiple determinations if made, read-out: FGFR2 Enz FRET IC50
In short: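 His-tagged FGFR2 cytoplasmic domain ([…]) with 100 nM Alexa Fluor 647-poly-GT peptide and 15 μM ATP in HEPES/MgCl2/Triton buffer, pH 7.5, 2% DMSO, 20 min at 22 °C. EDTA-quenched, Eu-PY20 antibody added, TR-FRET read after 60 min.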

[5] = molecular target: phosphorylated FGFR3 (SEQ ID NO: 5, amino acids 449 to 759) (Homo sapiens (Human), UniProt P22607); test: FGFR enzyme binding assay (HTRF tracer displacement), FGFR3; details: 5 nM phosphorylated FGFR3, average of multiple determinations if made
In short: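 Compounds were tested for displacement of a tracer from human FGFR kinase in a time-resolved FRET binding format. After 60 minutes at 22° C, signal was read at two wavelengths and converted to percent of control, normalised between untreated wells and 1 μM reference inhibitor.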

Chain of recombinant human FGFR2 cytoplasmic domain (amino acids 403-822) (P21802 402-821): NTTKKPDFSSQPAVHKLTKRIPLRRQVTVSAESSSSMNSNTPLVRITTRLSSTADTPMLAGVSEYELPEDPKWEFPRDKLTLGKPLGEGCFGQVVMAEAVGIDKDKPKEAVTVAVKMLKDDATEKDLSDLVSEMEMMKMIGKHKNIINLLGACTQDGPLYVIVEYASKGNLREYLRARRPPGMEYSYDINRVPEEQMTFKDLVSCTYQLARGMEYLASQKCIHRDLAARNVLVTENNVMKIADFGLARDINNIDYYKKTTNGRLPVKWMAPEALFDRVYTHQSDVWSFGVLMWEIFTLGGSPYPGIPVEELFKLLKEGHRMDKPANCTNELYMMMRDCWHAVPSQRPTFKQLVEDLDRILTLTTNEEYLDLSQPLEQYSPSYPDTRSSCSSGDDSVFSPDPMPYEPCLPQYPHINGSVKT
Chain of recombinant human FGFR1 catalytic domain (amino acids 308-731) (P11362 other isoform, or with tags, fused parts or gaps): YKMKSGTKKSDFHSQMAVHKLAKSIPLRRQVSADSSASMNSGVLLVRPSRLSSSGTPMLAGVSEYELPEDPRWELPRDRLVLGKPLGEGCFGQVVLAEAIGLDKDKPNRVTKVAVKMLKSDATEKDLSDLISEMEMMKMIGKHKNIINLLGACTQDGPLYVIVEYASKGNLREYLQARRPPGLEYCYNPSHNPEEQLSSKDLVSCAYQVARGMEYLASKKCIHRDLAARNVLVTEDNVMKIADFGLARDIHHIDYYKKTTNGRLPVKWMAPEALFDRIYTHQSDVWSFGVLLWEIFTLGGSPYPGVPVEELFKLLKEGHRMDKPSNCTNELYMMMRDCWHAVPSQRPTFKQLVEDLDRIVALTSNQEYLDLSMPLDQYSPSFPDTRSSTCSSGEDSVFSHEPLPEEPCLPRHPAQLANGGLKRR
Chain of recombinant human FGFR3 (amino acids R397-T806) (P22607 397-806): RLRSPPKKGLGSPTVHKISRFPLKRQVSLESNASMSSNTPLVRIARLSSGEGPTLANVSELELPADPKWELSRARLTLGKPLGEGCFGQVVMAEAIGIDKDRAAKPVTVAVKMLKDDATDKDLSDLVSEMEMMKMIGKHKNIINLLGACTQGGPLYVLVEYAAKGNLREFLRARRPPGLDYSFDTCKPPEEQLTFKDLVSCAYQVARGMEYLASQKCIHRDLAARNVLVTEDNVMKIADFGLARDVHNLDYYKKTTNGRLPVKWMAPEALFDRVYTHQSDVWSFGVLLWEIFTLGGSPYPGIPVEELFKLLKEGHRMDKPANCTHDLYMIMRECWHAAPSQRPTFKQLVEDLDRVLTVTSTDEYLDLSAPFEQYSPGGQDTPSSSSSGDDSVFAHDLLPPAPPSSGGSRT
Chain of FGFR3 (SEQ ID NO: 5, amino acids 449-759) (P22607 449-759): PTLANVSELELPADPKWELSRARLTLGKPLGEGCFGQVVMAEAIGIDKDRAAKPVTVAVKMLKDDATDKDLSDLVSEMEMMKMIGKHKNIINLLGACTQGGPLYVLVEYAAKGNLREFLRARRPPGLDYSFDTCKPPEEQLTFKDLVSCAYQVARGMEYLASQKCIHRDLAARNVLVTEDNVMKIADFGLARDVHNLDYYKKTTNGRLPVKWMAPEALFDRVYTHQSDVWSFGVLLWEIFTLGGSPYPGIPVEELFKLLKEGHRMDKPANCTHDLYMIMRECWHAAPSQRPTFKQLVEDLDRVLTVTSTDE
Chain of phosphorylated FGFR3 (SEQ ID NO: 5, amino acids 449 to 759) (P22607 449-759): as above

| Structure (SMILES) | FGFR3 Enz kobs [1] [min⁻¹] | IC50 [2] [nM] | IC50 [3] [nM] | IC50 [4] [nM] | IC50 [5] [nM] |
| --- | --- | --- | --- | --- | --- |
| C=CC(=O)N1CC(C(=O)N2CC[C@@H](n3cc(-c4cc(OC)c5c(C#N)cnn5c4)cn3)C2)C1 [Example 59, (R)-6-(1-(1-(1-acryloylazetidine-3-carbonyl)pyrrolidin-3-yl)-1H-pyrazol-4-yl)-4-methoxypyrazolo[1,5-a]pyridine-3-carbonitrile] | 0.00665 | 47 | 16 | 16 | 16 |
| C=CC(=O)N1CC(C(=O)N2CCC(n3ncc(-c4cc(OC)c5c(C#N)cnn5c4)c3C)CC2)C1(C)C (centres unmarked) [Example 87, 6-(1-(1-(1-acryloyl-2,2-dimethylazetidine-3-carbonyl)piperidin-4-yl)-5-methyl-1H-pyrazol-4-yl)-4-methoxypyrazolo[1,5-a]pyridine-3-carbonitrile] | 0.00502 | 240 | 32 | 18 | 16 |
| C=CC(=O)N1CC(CN2CCC(n3ncc(-c4cc(OC)c5c(C#N)cnn5c4)c3C)CC2)C1 [Example 89, 6-(1-(1-((1-acryloylazetidin-3-yl)methyl)piperidin-4-yl)-5-methyl-1H-pyrazol-4-yl)-4-methoxypyrazolo[1,5-a]pyridine-3-carbonitrile] | 0.02499 | 108 | 15 | 50 | 8 |
| C=CC(=O)N1CC2(CCC(C(=O)N3CCC(n4cc(-c5cc(OC)c6c(C#N)cnn6c5)cn4)CC3)CC2)C1 [Example 21, 6-(1-(1-(2-acryloyl-2-azaspiro[3.5]nonane-7-carbonyl)piperidin-4-yl)-1H-pyrazol-4-yl)-4-methoxypyrazolo[1,5-a]pyridine-3-carbonitrile] | 0.00661 | 10 | 3 | 3 | 5 |
| C=CC(=O)Nc1ccc(C(=O)N2CCC[C@@H](n3cc(-c4cc(OC)c5c(C#N)cnn5c4)cn3)C2)cc1 [Example 23, (R)-N-(4-(3-(4-(3-cyano-4-methoxypyrazolo[1,5-a]pyridin-6-yl)-1H-pyrazol-1-yl)piperidine-1-carbonyl)phenyl)acrylamide] | 0.01176 | 36 | 16 | 12 | 54 |
| C=CC(=O)N1C2CC1CN(C(=O)N1CCC(n3cc(-c4cc(OC)c5c(C#N)cnn5c4)cn3)CC1)C2 [Example 1, 6-(1-(1-(6-acryloyl-3,6-diazabicyclo[3.1.1]heptane-3-carbonyl)piperidin-4-yl)-1H-pyrazol-4-yl)-4-methoxypyrazolo[1,5-a]pyridine-3-carbonitrile] | 0.01496 | 5 | 5 | 15 | 4 |
| C=CC(=O)N1CC(C(=O)N2CC3CCC(C2)N3c2ccc(-c3cc(OC)c4c(C#N)cnn4c3)cn2)C1 [Example 51, 6-(6-(3-(1-acryloylazetidine-3-carbonyl)-3,8-diazabicyclo[3.2.1]octan-8-yl)pyridin-3-yl)-4-methoxypyrazolo[1,5-a]pyridine-3-carbonitrile] | 0.01769 | 34 | 22 | 9 | 9 |

The remaining compounds from weak to strong by IC50 [2], led by results:

| FGFR3 Enz kobs [1] [min⁻¹] | IC50 [2] [nM] | IC50 [3] [nM] | IC50 [4] [nM] | IC50 [5] [nM] | Structure (SMILES) |
| --- | --- | --- | --- | --- | --- |
| 0.02116 | 617 | 11 | 96 | 9 | C=CC(=O)N1CC(C)(C(=O)N2CCC(n3ncc(-c4cc(OC)c5c(C#N)cnn5c4)c3C)CC2)C1 [Example 86, 6-(1-(1-(1-acryloyl-3-methylazetidine-3-carbonyl)piperidin-4-yl)-5-methyl-1H-pyrazol-4-yl)-4-methoxypyrazolo[1,5-a]pyridine-3-carbonitrile] |
| 0.01468 | 165 | 21 | 56 | 14 | C=CC(=O)N1CC(C)(CN2CCC(n3ncc(-c4cc(OC)c5c(C#N)cnn5c4)c3C)CC2)C1 [Example 90, 6-(1-(1-((1-acryloyl-3-methylazetidin-3-yl)methyl)piperidin-4-yl)-5-methyl-1H-pyrazol-4-yl)-4-methoxypyrazolo[1,5-a]pyridine-3-carbonitrile] |
| 0.00672 | 53 | 12 | 18 | 52 | C=CC(=O)Nc1ccccc1C(=O)N1CCC[C@@H](n2cc(-c3cc(OC)c4c(C#N)cnn4c3)cn2)C1 [Example 25, (R)-N-(2-(3-(4-(3-cyano-4-methoxypyrazolo[1,5-a]pyridin-6-yl)-1H-pyrazol-1-yl)piperidine-1-carbonyl)phenyl)acrylamide] |
| 0.0108 | 21 | 4 | 5 | 8 | C=CC(=O)Nc1cccc(C(=O)N2CCC(n3cc(-c4cc(OC)c5c(C#N)cnn5c4)cn3)CC2)c1 [Example 22, N-(3-(4-(4-(3-cyano-4-methoxypyrazolo[1,5-a]pyridin-6-yl)-1H-pyrazol-1-yl)piperidine-1-carbonyl)phenyl)acrylamide] |
| 0.02236 | 19 | 4 | 5 | 10 | C=CS(=O)(=O)N[C@@H]1CC[C@H](C(=O)N2CCC(n3cc(-c4cc(OC)c5c(C#N)cnn5c4)cn3)CC2)C1 [Example 191, N-((1R,3S)-3-(4-(4-(3-cyano-4-methoxypyrazolo[1,5-a]pyridin-6-yl)-1H-pyrazol-1-yl)piperidine-1-carbonyl)cyclopentyl)-ethenesulfonamide] |
| 0.02545 | 18 | 6 | 4 | 18 | C=CC(=O)Nc1ccc(C(=O)N2CC[C@H](n3cc(-c4cc(OC)c5c(C#N)cnn5c4)cn3)C2)cc1OC [Example 71, (S)-N-(4-(3-(4-(3-cyano-4-methoxypyrazolo[1,5-a]pyridin-6-yl)-1H-pyrazol-1-yl)pyrrolidine-1-carbonyl)-2-methoxyphenyl)acryla72 mide] |
| 0.07092 | 16 | 4 | 7 | 3 | C=CC(=O)N1CC(F)(C(=O)N2CCC(n3cc(-c4cc(OC)c5c(C#N)cnn5c4)cn3)CC2)C1 [Example 37, 6-(1-(1-(1-acryloyl-3-fluoroazetidine-3-carbonyl)piperidin-4-yl)-1H-pyrazol-4-yl)-4-methoxypyrazolo[1,5-a]pyridine-3-carbonitrile] |
| 0.01575 | 11 | 2 | 6 | 3 | C=CC(=O)N1CC(C(=O)N2CCC(n3cc(-c4cc(OC)c5c(C#N)cnn5c4)cn3)CC2)C1C (centres unmarked) [Example 42, 6-(1-(1-(1-acryloyl-2-methylazetidine-3-carbonyl)piperidin-4-yl)-1H-pyrazol-4-yl)-4-methoxypyrazolo[1,5-a]pyridine-3-carbonitrile] |
| 0.01133 | 9 | 2 | 3 | 5 | C=CC(=O)N1CC(CC)(C(=O)N2CCC(n3cc(-c4cc(OC)c5c(C#N)cnn5c4)cn3)CC2)C1 [Example 40, 6-(1-(1-(1-acryloyl-3-ethylazetidine-3-carbonyl)piperidin-4-yl)-1H-pyrazol-4-yl)-4-methoxypyrazolo[1,5-a]pyridine-3-carbonitrile] |
